Laboratory results taken from patent publication US12599602B2, “Methods for treating cholestasis” (Mirum Pharmaceuticals, Inc., priority 2019, dated 2026).
Counter-ions that a name gives are not always drawn.

Test system: Overweight and obese adults
Assay: Phase 1 blinded, placebo-controlled, dose-ranging clinical study (NCT02475317), fecal bile acid excretion
Experimental: Participants consumed a low-fiber diet (<10 mg/day) for 2 days before randomization and during the 7-day treatment period. Measurements were taken of fBA, sBA concentration, and serum 7αC4 concentration (which is a biomarker of bile acid synthesis) prior to drug administration and at day 7.

In the case of `CCCC[C@]1(CC)CS(=O)(=O)c2ccc(N(C)C)cc2[C@@H](c2cccc(NC(=O)N[C@@H]3O[C@H](COS(=O)(=O)O)[C@@H](O)[C@H](OCc4ccccc4)[C@H]3O)c2)[C@H]1O` [volixibat, (2R,3R,4S,5R,6R)-4-benzyloxy-6-{3-[3-((3S,4R,5R)-3-butyl-7-dimethylamino-3-ethyl-4-hydroxy-1,1-dioxo-2,3,4,5-tetrahydro-1H-benzo[b]thiepin-5-yl)-phenyl]-ureido}-3,5-dihydroxy-tetrahydro-pyran-2-ylmethyl) hydrogen sulfate], the “Mean sBA levels” value (7 days) was “not elevated”, the fBA excretion (across doses) was “increased in a dose-dependent manner” and the “treatment-emergent adverse events occurring in over 10% of participants” value (all doses) was “headache and diarrhea”. For the same compound, the “treatment-emergent adverse events, severity” value (all doses) was “mild, and none were serious” and the “Mean serum 7αC4” value (baseline to day 7) was “increased”.
